Results published in patent US12036312B2, “Non-aqueous topical compositions comprising a halogenated salicylanilide” (priority 2016, dated 2024).
Converted amounts (≈) assume the structure as drawn.

Tested on: S. aureus
Experiment: MIC assay according to CLSI criteria, Example 2, S. aureus strains
Type: cell-based, Staphylococcus aureus
Details: Staphylococcus aureus
Source text: Chosen for its relevance regarding bacterial skin infections, the methicillin-resistant S. aureus (MRSA) 01 strain was used as the primary test microorganism. This strain is a community-acquired MRSA clinical isolate of USA 300 type, from a skin abscess.
Two-hundred-four other MRSA and methicillin-sensitive S. aureus strains, and 4 Streptococcus pyogenes strains, were also included in the study. These covered fusidic acid- and mupirocin-resistant strains, these two types of resistance being of clinical relevance.
Strains were conserved in Luria Bertani (LB) Broth (S. aureus) or Brain Heart Infusion (BHI) (S. pyogenes) supplemented with glycerol 15% (v/v) at −80° C., and reactivated by isolation on LB (S. aureus) or BHI (S. pyogenes) agar plates. Strains were cultivated in Mueller Hinton (MH) Broth-cation adjusted (S. aureus) or BHI (S. pyogenes). All strains were cultivated aerobically (microaerobically for S. pyogenes strains) at 37° C.
Bacterial cultures were stopped in their exponential growth phase and plates were inoculated with the approximate concentration of 5×10^5 cells per well. Plates were incubated at 37° C. for 18 hours (S. aureus) or 24 hours (S. pyogenes). Optical density at a wavelength of 600 nm was measured at the end of the incubation time.

CN[C@H](CC(C)C)C(=O)N[C@H]1C(=O)N[C@@H](CC(N)=O)C(=O)N[C@H]2C(=O)N[C@H]3C(=O)N[C@H](C(=O)N[C@H](C(=O)O)c4cc(O)cc(O)c4-c4cc3ccc4O)[C@H](O)c3ccc(c(Cl)c3)Oc3cc2cc(c3O[C@@H]2O[C@H](CO)[C@@H](O)[C@H](O)[C@H]2O[C@H]2C[C@](C)(N)[C@H](O)[C@H](C)O2)Oc2ccc(cc2Cl)[C@H]1O [Vancomycin, vancomycin]
MIC (ATCC29213, strain ATCC 29213): 1 µg/mL (≈ 0.69 µM)
MIC (MRSA, strain MRSA 01): 1 µg/mL (≈ 0.69 µM)
MIC (MRSA, strain MRSA 02): 2 µg/mL (≈ 1.38 µM)
MIC (MRSA, strain MRSA 03): 1 µg/mL (≈ 0.69 µM)
MIC (MRSA, strain MRSA 04): 2 µg/mL (≈ 1.38 µM)
MIC (MRSA, strain MRSA 05): 1 µg/mL (≈ 0.69 µM)
MIC (MRSA, strain MRSA 06): 2 µg/mL (≈ 1.38 µM)
MIC (MRSA, strain MRSA 07): 1 µg/mL (≈ 0.69 µM)
MIC (MRSA, strain MRSA 08): 1 µg/mL (≈ 0.69 µM)
MIC (MRSA, strain MRSA 09): 2 µg/mL (≈ 1.38 µM)
MIC (MRSA, strain MRSA 10): 1 µg/mL (≈ 0.69 µM)
MIC (MRSA, strain MRSA 11): 1 µg/mL (≈ 0.69 µM)
MIC (MRSA, strain MRSA 13): 1 µg/mL (≈ 0.69 µM)
MIC (MRSA, strain MRSA 14): 1 µg/mL (≈ 0.69 µM)
MIC (MRSA, strain MRSA 15): 2 µg/mL (≈ 1.38 µM)
MIC (MRSA, strain MRSA 16): 1 µg/mL (≈ 0.69 µM)
MIC (MRSA, strain MRSA 17): 2 µg/mL (≈ 1.38 µM)
MIC (MRSA, strain MRSA 18): 1 µg/mL (≈ 0.69 µM)
MIC (MRSA, strain MRSA 19): 1 µg/mL (≈ 0.69 µM)
MIC (MRSA, strain MRSA 20): 1 µg/mL (≈ 0.69 µM)
MIC (MRSA, strain MRSA 21): 1 µg/mL (≈ 0.69 µM)
MIC (MRSA, strain MRSA 22): 0.5 µg/mL (≈ 0.345 µM)
MIC (MRSA, strain MRSA 23): 1 µg/mL (≈ 0.69 µM)
MIC (MRSA, strain MRSA 24): 2 µg/mL (≈ 1.38 µM)
MIC (MRSA, strain MRSA 25): 1 µg/mL (≈ 0.69 µM)
MIC (MRSA, strain MRSA 26): 1 µg/mL (≈ 0.69 µM)
MIC (MRSA, strain MRSA 27): 1 µg/mL (≈ 0.69 µM)
MIC (MRSA, strain MRSA 27b): 1 µg/mL (≈ 0.69 µM)
MIC (MRSA, strain MRSA 28): 1 µg/mL (≈ 0.69 µM)
MIC (MRSA, strain MRSA 29): 1 µg/mL (≈ 0.69 µM)
MIC (MRSA, strain MRSA 30): 1 µg/mL (≈ 0.69 µM)
MIC (MRSA, strain MRSA 31): 1 µg/mL (≈ 0.69 µM)
MIC (MRSA, strain MRSA 32): 1 µg/mL (≈ 0.69 µM)
MIC (MRSA, strain MRSA 33): 1 µg/mL (≈ 0.69 µM)
MIC (MRSA, strain MRSA 34): 1 µg/mL (≈ 0.69 µM)
MIC (MRSA, strain MRSA 35): 1 µg/mL (≈ 0.69 µM)
MIC (MRSA, strain MRSA 36): 1 µg/mL (≈ 0.69 µM)
MIC (MRSA, strain MRSA 37): 1 µg/mL (≈ 0.69 µM)
MIC (MRSA, strain MRSA 38): 1 µg/mL (≈ 0.69 µM)
MIC (MRSA, strain MRSA 39): 1 µg/mL (≈ 0.69 µM)
MIC (MRSA, strain MRSA 40): 1 µg/mL (≈ 0.69 µM)
MIC (MRSA, strain MRSA 41): 1 µg/mL (≈ 0.69 µM)
MIC (MRSA, strain MRSA 42): 1 µg/mL (≈ 0.69 µM)
MIC (MRSA, strain MRSA 43): 1 µg/mL (≈ 0.69 µM)
MIC (MRSA, strain MRSA 44): 1 µg/mL (≈ 0.69 µM)
MIC (MRSA, strain MRSA 45): 1 µg/mL (≈ 0.69 µM)
MIC (MRSA, strain MRSA 46): 1 µg/mL (≈ 0.69 µM)
MIC (MRSA, strain MRSA 47): 0.5 µg/mL (≈ 0.345 µM)
MIC (MRSA, strain MRSA 48): 0.5 µg/mL (≈ 0.345 µM)
MIC (MRSA, strain MRSA 49): 2 µg/mL (≈ 1.38 µM)
MIC (MRSA, strain MRSA 50): 1 µg/mL (≈ 0.69 µM)
MIC (MRSA, strain MRSA 51): 1 µg/mL (≈ 0.69 µM)
MIC (MRSA, strain MRSA 52): 1 µg/mL (≈ 0.69 µM)
MIC (MRSA, strain MRSA 53): 1 µg/mL (≈ 0.69 µM)
MIC (MRSA, strain MRSA 54): 2 µg/mL (≈ 1.38 µM)
MIC (MRSA, strain MRSA 55): 0.5 µg/mL (≈ 0.345 µM)
MIC (MRSA, strain MRSA 56): 1 µg/mL (≈ 0.69 µM)
MIC (MRSA, strain MRSA 57): 1 µg/mL (≈ 0.69 µM)
MIC (MRSA, strain MRSA 58): 1 µg/mL (≈ 0.69 µM)
MIC (MRSA, strain MRSA 59): 1 µg/mL (≈ 0.69 µM)
MIC (MRSA, strain MRSA 60): 0.5 µg/mL (≈ 0.345 µM)
MIC (MRSA, strain MRSA 61): 2 µg/mL (≈ 1.38 µM)
MIC (MRSA, strain MRSA 62): 2 µg/mL (≈ 1.38 µM)
MIC (MRSA, strain MRSA 63): 1 µg/mL (≈ 0.69 µM)
MIC (MRSA, strain MRSA 64): 1 µg/mL (≈ 0.69 µM)
MIC (MRSA, strain MRSA 65): 1 µg/mL (≈ 0.69 µM)
MIC (MRSA, strain MRSA 66): 1 µg/mL (≈ 0.69 µM)
MIC (MRSA, strain MRSA 67): 1 µg/mL (≈ 0.69 µM)
MIC (MRSA, strain MRSA 68): 1 µg/mL (≈ 0.69 µM)
MIC (MRSA, strain MRSA 69): 1 µg/mL (≈ 0.69 µM)
MIC (MRSA, strain MRSA 70): 1 µg/mL (≈ 0.69 µM)
MIC (MRSA, strain MRSA 71): 1 µg/mL (≈ 0.69 µM)
MIC (MRSA, strain MRSA 72): 1 µg/mL (≈ 0.69 µM)
MIC (MRSA, strain MRSA 73): 1 µg/mL (≈ 0.69 µM)
MIC (MRSA, strain MRSA 74): 1 µg/mL (≈ 0.69 µM)
MIC (MRSA, strain MRSA 75): 1 µg/mL (≈ 0.69 µM)
MIC (MRSA, strain MRSA 76): 1 µg/mL (≈ 0.69 µM)
MIC (MRSA, strain MRSA 77): 2 µg/mL (≈ 1.38 µM)
MIC (MRSA, strain MRSA 78): 1 µg/mL (≈ 0.69 µM)
MIC (MRSA, strain MRSA 79): 1 µg/mL (≈ 0.69 µM)
MIC (MRSA, strain MRSA 80): 1 µg/mL (≈ 0.69 µM)
MIC (MRSA, strain MRSA 81): 1 µg/mL (≈ 0.69 µM)
MIC (MRSA, strain MRSA 82): 2 µg/mL (≈ 1.38 µM)
MIC (MRSA, strain MRSA 83): 1 µg/mL (≈ 0.69 µM)
MIC (MRSA, strain MRSA 84): 2 µg/mL (≈ 1.38 µM)
MIC (MRSA, strain MRSA 85): 1 µg/mL (≈ 0.69 µM)
MIC (MRSA, strain MRSA 86): 2 µg/mL (≈ 1.38 µM)
MIC (MRSA, strain MRSA 87): 1 µg/mL (≈ 0.69 µM)
MIC (MRSA, strain MRSA 88): 1 µg/mL (≈ 0.69 µM)
MIC (MRSA, strain MRSA 89): 1 µg/mL (≈ 0.69 µM)
MIC (MRSA, strain MRSA 90): 1 µg/mL (≈ 0.69 µM)
MIC (MRSA, strain MRSA 91): 1 µg/mL (≈ 0.69 µM)
MIC (MRSA, strain MRSA 92): 1 µg/mL (≈ 0.69 µM)
MIC (MRSA, strain MRSA 93): 2 µg/mL (≈ 1.38 µM)
MIC (MRSA, strain MRSA 94): 2 µg/mL (≈ 1.38 µM)
MIC (MRSA, strain MRSA 95): 2 µg/mL (≈ 1.38 µM)
MIC (MRSA, strain MRSA 96): 1 µg/mL (≈ 0.69 µM)
MIC (MRSA, strain MRSA 97): 1 µg/mL (≈ 0.69 µM)
MIC (MRSA, strain MRSA 98): 1 µg/mL (≈ 0.69 µM)
MIC (MRSA, strain MRSA 99): 1 µg/mL (≈ 0.69 µM)
MIC (MRSA, strain MRSA 100): 1 µg/mL (≈ 0.69 µM)
MIC (MRSA, strain MRSA 101): 1 µg/mL (≈ 0.69 µM)
